Drawing on PubChem BioAssay AID179 (DTP/NCI, 2004), this text covers EC50, IC50 and outcome for 74 compounds.

This experiment relates to CEM cells HIV-1 protection, formazan growth assay. As to the kind of experiment: NCI AIDS Antiviral Assay. The settings on record: for pIC50: measured here: growth of uninfected CEM cells. The method in brief:
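Soluble formazan readout of cell growth; CEM cells ± HIV-1; 5 drug concs. ≥50% protection → retest; ≥50% again = moderately active; reproducible 100% = confirmed active.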

pEC50, pIC50: −log10 of the molar value. Activity calls are given as the source filed them.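 How the source made its calls: active means compounds giving half or more protection of infected cells from virus-caused growth loss, again on retest; inactive means the rest.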 Where a SMILES comes first, the peptide text is derived from it.

For the compound `CCN(CC)P1(=S)OCC(C)O1` (stereo not given), the pEC50 is less than 3.49 and the negative-log IC50 (pIC50) was 3.51. In the same order, the values of `Cc1ncc([N+](=O)[O-])n1CCNC(=O)Cn1ccnc1[N+](=O)[O-]` are less than 3.70 and less than 3.70. The like results for `O=c1[nH]cnc2c1ncn2Cc1ccccc1CCO` were, in that order, less than 4.03 and less than 4.03. In the same order, the values of `CS(=O)(=O)Nc1nc2ccccc2c(=O)o1` are less than 3.70 and less than 3.70. Consider `CN=c1ncc2nc(-c3ccccc3)c(-c3ccccc3)n(C)c-2n1`, for which the outcome was inactive. Take `COc1cc(Cc2nnc(N)[nH]c2=O)cc(OC)c1OC`: the pEC50 is less than 4.75 and the pIC50 was less than 4.75. In the case of `NN1C(=O)CS/C1=N\C(=S)N/N=C1/SCC(=O)N1N`, the pEC50 is 4.24 and the pIC50 was 4.07. In the same order, the values of `Nc1nc(Cl)cc(NCC2(CO)CC(OCc3ccccc3)C2)n1` (stereo not given) are less than 3.70 and 5.22. `CC(NC(=O)C(CCCCN)NC(=O)C(N)CC(=O)O)C(=O)NC(CO)C(=O)NC(Cc1ccc(O)cc1)C(=O)NC(CO)C(=O)NC(C(=O)NC(CC(N)=O)C(=O)NC(Cc1cnc[nH]1)C(=O)O)C(C)O` (stereo not given) (H-DKASYSTNH-OH; configuration not given here): the pEC50 was less than 4.31 and the pIC50 is less than 4.31. Turning to `CCc1cccc(C(C)C)c1NC(=O)CC1Sc2ccccc2NC1=O` (stereo not given), the pEC50 is less than 4.01 and the negative logarithm of the IC50 (pIC50) is 4.28. The like results for `CCOC1=NC(O)c2cccn2-c2sccc21` (stereo not given) were, in that order, less than 3.70 and 3.90. The like results for `CC(C)CC1C(=O)NCCC(NC(=O)C(Cc2ccc(OC(C)(C)C)cc2)NC(=O)OC(C)(C)C)C(=O)NC(Cc2ccccc2)C(=O)NC(Cc2ccccc2)NC1=O` (stereo not given) were, in that order, less than 4.20 and 5.14. In the same order, the values of `CCOC(=O)c1c(C)[nH]c(C(=O)C(N=O)C(=O)OCC)c1C` (stereo not given) are less than 3.70 and less than 3.70. `CC(C(=O)c1ccc(O)cc1)C1(O)C(=O)Nc2c(Cl)cc(Cl)cc21` (stereo not given): the pEC50 was less than 3.59 and the pIC50 was 3.95.

Turning to `CN=C(Nc1ccc(OC)c2ccccc12)SC`, the pEC50 was less than 3.70 and the negative logarithm of the IC50 (pIC50) is less than 4.00. On to `O=C(O)CSc1nnc(COc2ccc(Cl)cc2)n1-c1ccccc1`, for which the pEC50 is less than 3.70 and the pIC50 was 3.74. In the same order, the values of `CCc1n[nH]c(=O)n1/N=C/c1c(O)ccc2ccccc12` are less than 3.70 and less than 3.70.

As for `CN1C2CCC1CC1(C2)SCCS1`, the outcome was inactive.

For the compound `Cn1c2c(cc(-c3ccccc3)c1=O)COc1ccccc1-2`, the pEC50 is less than 4.05 and the pIC50 was 4.33. The like results for `COC(=O)/C([O-])=C(\C(=O)OC)[n+]1cc(Br)cc2ccccc21` were, in that order, less than 3.70 and 4.11.

Regarding `O=C(O)c1nc2ccc(C(F)(F)F)cc2[nH]c1=O`, the pEC50 was less than 3.70 and the negative-log IC50 (pIC50) is less than 3.70. As for `O=C1CSC(Cc2nc3ccccc3o2)=N1`, the pEC50 is less than 3.70 and the negative logarithm of the IC50 (pIC50) was 5.32. In the same order, the values of `COc1ccccc1CC1(O)OC(=O)c2ccccc21` (stereo not given) are less than 3.70 and less than 3.70. For `O=c1[nH]c2cc3[nH]c(=O)c(=O)[nH]c3cc2[nH]c1=O`, the pEC50 was less than 3.70 and the pIC50 was less than 3.70. For the compound `COc1cc(NCCN2CCN(CCNc3cc(OC)cc4cccnc34)CC2)c2ncccc2c1`, the pEC50 was less than 4.30 and the pIC50 was 4.34. The like results for `CC(=O)C(N=Nc1nc2ccc(Cl)cc2[nH]1)C(C)=O` were, in that order, less than 3.70 and 4.54. Regarding `CCC(C)CC(C)CC(C)/C=C(\C)C1=C(C)CC(C)(O)O1` (stereo not given), the result was inactive. Regarding `COC1/C=C/OC2(C)Oc3c(C)c(O)c4c(O)c(cc(OCC(=O)N5CC(C)(C)C5)c4c3C2=O)NC(=O)/C(C)=C/C=CC(C)C(O)C(C)C(O)C(C)C(OC(C)=O)C1C` (stereo not given), the pEC50 was less than 3.70 and the negative logarithm of the IC50 (pIC50) is 4.57. In the same order, the values of `Cc1cc2c(cc1C)N1C(Cl)=C3CCCCC3=C(C#N)C1N2` (stereo not given) are less than 4.70 and 6.25. The like results for `CN(C(=S)Nc1ccccc1)c1cc(N2CCCC2)ccn1` were, in that order, less than 3.70 and 4.53.

As to `CC(=O)Nc1cccc2[nH]c3ccccc3c(=O)c12`, the result was inactive. As to `CC1=CCC(C(C)(C)NC(=O)c2ccccc2)C/C1=N/O` (stereo not given), the pEC50 is less than 4.04 and the negative-log IC50 (pIC50) was less than 4.04. Regarding `Cc1c(Cc2ccccc2)n(C(C)OCCN(O)C(N)=O)c(=O)[nH]c1=O` (stereo not given), the pEC50 is less than 3.70 and the pIC50 is less than 3.70. On to `c1ccc(-c2[o+]c(-c3ccccc3)c(-c3ccccc3)c(-c3ccccc3)c2-c2ccccc2)cc1`, for which the outcome was inactive. As to `COC(=O)c1cc(NC2OCC(OC(C)=O)C(OC(C)=O)C2OC(C)=O)nc(SC)c1C(=O)OC` (stereo not given), the pEC50 is less than 3.70 and the pIC50 was less than 3.70. Take `Cn1c(COc2ccc(/C=N/NC(=O)c3cccc(C(=O)N/N=C/c4ccc(OCc5c[n+]6ccccc6n5C)cc4)c3)cc2)c[n+]2ccccc12`: the pEC50 is less than 5.16 and the pIC50 was less than 5.16. As for `O=[N+]([O-])c1ccc(C2CC(c3ccc(NCc4nc5ccccc5[nH]4)cc3)=NO2)cc1` (stereo not given), the pEC50 is less than 5.04 and the pIC50 is less than 5.04. Take `O=C1CC2CCCC(C1)S2=O` (stereo not given): the pEC50 is less than 2.84 and the pIC50 was less than 2.84. On to `O=[As]1(c2ccccc2)c2ccccc2Oc2ccccc21`, for which the pEC50 was less than 3.54 and the negative-log IC50 (pIC50) is 3.85. For the compound `Nc1ccc(C(=O)O)c2[nH]c3ccccc3c(=O)c12`, the outcome was inactive. Regarding `CN1C(c2ccccc2)=C(C#N)C(=O)CC(c2cccs2)N1C` (stereo not given), the pEC50 was less than 3.70 and the negative-log IC50 (pIC50) is 3.72.

Consider `COc1ccc(N2C(=O)[C@H]3CC(C)c4c([nH]c5ccccc45)[C@H]3C2=O)cc1` (stereo not given in full), for which the pEC50 was less than 4.38 and the pIC50 is 6.06. The like results for `C=CCOCCCC(=O)C(=[N+]=[N-])C(=O)OC` were, in that order, less than 3.60 and 4.24. Consider `COc1ccc2c3c(c(C(=O)O)oc13)C(CCC(=O)O)CC2` (stereo not given), for which the outcome was inactive.

As to `CC(=O)N(CN1C(=O)CCC1C(=O)O)c1ccccc1` (stereo not given), the outcome was inactive. Consider `Cc1cn(C2C/C(=C\C#N)C(CO[Si](C)(C)C(C)(C)C)O2)c(=O)[nH]c1=O` (stereo not given), for which the pEC50 is less than 3.70 and the pIC50 was 3.74. As for `OCC(Cn1cncn1)(c1ccc(F)cc1F)n1cncn1` (stereo not given), the pEC50 was less than 3.70 and the pIC50 is less than 3.70. With `CCC1CN2CCC3(C(=O)Nc4ccccc43)C2CC1/C(=C/OC)C(=O)OC` (stereo not given), the result was inactive. As to `Cc1ccnc2n[nH]nc12`, the pEC50 was less than 2.73 and the negative logarithm of the IC50 (pIC50) was 3.43. The like results for `COCOc1c(C(O[Si](C)(C)C(C)(C)C)c2cnc(Sc3ccccc3)n2C)ccc(OC)c1OC` (stereo not given) were, in that order, less than 3.70 and 5.37. The like results for `Cc1ccc(C)n1-c1ccccc1C1C=Cn2c(=O)nnc3c(OC(C)C)c(OC(C)C)c(O)c1c32` (stereo not given) were, in that order, less than 3.70 and 4.59.

As for `Cc1nc(N)sc1C(=O)/C=C\c1ccc2c(c1)OCO2`, the pEC50 was less than 3.06 and the pIC50 was 3.36.

On to `CC[C@H](NC(=O)OC(C)(C)C)C(=O)NCP(=O)(OCc1ccc([N+](=O)[O-])cc1)OCc1ccc([N+](=O)[O-])cc1`, for which the pEC50 was less than 3.70 and the pIC50 was 4.47. For the compound `CNc1ncnc2c1ncn2C1OC(CO)CC1F` (stereo not given), the negative logarithm of the EC50 (pEC50) was 3.80 and the pIC50 is less than 3.70.

Consider `CCc1cccc2c3c([nH]c12)C(CC)(CC(=O)O)OCC3` (stereo not given), for which the pEC50 is less than 3.70 and the pIC50 was less than 3.70.

Consider `CCCSc1nn2cc(NC(=O)OC)nc2s1`, for which the pEC50 was less than 3.70 and the negative-log IC50 (pIC50) is 5.64. In the same order, the values of `[Br][Sn]12[c]3ccccc3CN(Cc3cccc[c]31)Cc1cccc[c]12` are less than 3.70 and less than 3.70.

For the compound `Cc1cc2c(C)n(Cc3ccc(Cl)cc3Cl)nc2c(C(=O)O)c1C`, the pEC50 is less than 3.30 and the pIC50 is 4.08. The like results for `Cc1cc2c(C)nn(Cc3ccc(Cl)cc3)c2c(C#N)c1C` were, in that order, less than 4.36 and less than 4.36. In the same order, the values of `CCOP(=O)(OCC)C1CC(n2cc(C)c(=O)[nH]c2=O)OC1CO` (stereo not given) are less than 3.70 and 3.74. The like results for `Cn1c(/C=C(\O)c2ccc(Cl)cc2)nc2ccccc21` were, in that order, less than 4.04 and less than 4.04.

In the case of `CCN(CC)OC(=O)/C=C/c1ccccc1`, the outcome was inactive.

In the case of `COc1cccc(-c2nnc(N)o2)c1`, the result was inactive. `Cc1ccc(S(=O)(=O)N/N=c2/sc3ccccc3n2C)cc1`: the pEC50 is less than 3.70 and the pIC50 was less than 3.70. As for `COC1=C(C)C(=O)c2nc(Cl)cc(C)c2C1=O`, the result was inactive. As to `Cc1cccc(C(C)C)c1NC(=O)CC1Sc2ccccc2NC1=O` (stereo not given), the pEC50 is less than 4.69. `C[C@@H](COCP(=O)(O)O)n1cnc2c(N)ncnc21`: the pEC50 was less than 3.70 and the negative logarithm of the IC50 (pIC50) is less than 3.70. Regarding `CCOC(=O)[C@H]1Nc2ccccc2C2c3ccccc3CC21` (stereo not given in full), the pEC50 is less than 4.19 and the pIC50 is less than 4.19. As to `Cc1nnc2n1N=C(c1ccc(O)c(O)c1O)CS2`, the pEC50 is less than 3.70 and the pIC50 is 4.69. In the same order, the values of `c1ccc2c(c1)c1ccccc1n2-n1c2ccccc2c2ccccc21` are less than 3.70 and 3.88. In the same order, the values of `NCCCCC(NC(=O)C(N)Cc1ccc(O)cn1)C(=O)O` (stereo not given) are less than 3.70 and less than 3.70. For `CC1=NN(C(=O)CC(=O)NC(=O)CC(=O)Nc2ccccc2F)C(=O)C1N=Nc1ccc([N+](=O)[O-])cc1` (stereo not given), the pEC50 was less than 4.15 and the pIC50 was 4.35. In the same order, the values of `COC1(OC)N=C(N)C2(C#N)C(C)=C3NCN(C)N=C3C12C#N` (stereo not given) are less than 3.70 and less than 3.70. On to `CC1CCC2(CC1)NC1=C(CC(C)CC1)C1=C2CC(C)CC1` (stereo not given), for which the pEC50 was less than 3.70 and the pIC50 is 4.45.
